The results in this text go back to patent publication US10907181B2, “Biosynthetic pathways and products” (REGENTS OF THE UNIVERSITY OF MINNESOTA, priority 2013, dated 2021).

A short description of data set [1]: liquid-liquid solvent extraction at equal volume ratio. The conditions noted are these: not told.
A short description of data set [2]: Extraction of anhydromevalonolactone with different organic solvents (extract efficiency and partition coefficient Kd, solvent/water). In kind it is physicochemical. The source says: Purification of anhydromevalonolactone also was studied by extraction with different organic solvents (Table 1). Approximately 96% of the anhydromevalonolactone was extracted when chloroform was applied at a 1:1 volume ratio. […] NMR analysis indicated the anhydromevalonolactone was in the lactone form, instead of equilibrating with its hydroxyacid form (FIG. 6).
The fermentation broth from the bioreactor was harvested by centrifuge, and then was discolored by activated charcoal. The test tubes were filled with 5 mL fermentation broth and concentrated H3PO4 or H2SO4, then autoclaved for one hour to make anhydromevalonate, and then the concentrations of mevalonate and anhydromevalonate were measured by HPLC. Immiscible organic solvents were used to extraction anhydromevalonate from the reaction mixture.

The nature of data set [3]: liquid-liquid solvent extraction at equal volume ratio, HPLC quantification. The settings on record: not told.

`CC1=CC(=O)OCC1` [Anhydromevalonolactone, anhydromevalonolactone]: the “partition coefficient (Kd)” value in data set [1] is 25 concentration ratio (Kd); in data set [3] it was 24.89 concentration ratio (Kd). Moreover, the Anhydromevalonolactone extract efficiency in data set [2] (solvent Benzene) is 65.26%; in data set [2] (solvent CHC13 (chloroform), 1:1 volume ratio), 96.14%; in data set [2] (solvent CHC13 (chloroform), 1:1 volume ratio, listed as anhydromevalonolactone), “Approximately 96%”; in data set [2] (solvent DIBK), 44.15%; in data set [2] (solvent MIBK), 79.90%; in data set [2] (solvent Oley) it was 35.56%. Besides, in data set [2] (solvent ethyl acetate), the Anhydromevalonolactone extract efficiency turned out to be 79.67%.
